Assay results reported in PMC11480511 (Scientific Reports, 2024).
In brackets after ≈: the same amount, converted by molar mass. Where two headings read alike, the source gives them in different places.

Legend:
S. aureus ATCC 6538 = assay: Antibacterial screening, agar cup diffusion method; type: cell-based; conditions: Staphylococcus aureus, ATCC6538; Gram + ve strain; read-out: Minimum inhibitory concentrations (MIC, µM) S. aureus ATCC 6538
Description: (§1) Anti-bacterial activity of the recently synthesized compounds 3a-k was evaluated at AUMC (Assiut University Mycological Centre), Assiut, Egypt. Assays were done against Gram-negative strains of K. pneumoniae (ATCC 100310, E. coli (ATCC 25922), Pseudomonas aeruginosa (ATCC 27853) and the Gram-positive S. aureus (ATCC 6538) strain utilizing standard agar cup diffusion method. The isolates from the four bacterial species examined were kept in TSB (Trypticase Soya Broth, Becton and Dickinson) with 10% glycerol at -70 °C and then subcultured on TSA (Trypticase Soya Agar, Becton and Dickinson) and TSB for 24 h at 37 °C former to inoculation. Bacterial isolates were then plated on sterile petri plates with 1 × 10^8 CFU/mL (0.5 McFarland turbidity) and 20 mL of Mueller Hinton Agar media (Oxoid) was then loaded. To ensure that the microorganisms were evenly dispersed, the plates were gently rotated before being left to harden on a level surface. Four equally spaced spherical-shaped wells (10 mm diameter) were painstakingly drilled using a sterilized cork bore after media solidification. All tested compounds under test underwent two-fold serial dilutions in a sequential manner. Three replications of 100 µL of each concentration were added to a well using a micropipette. Plates were then incubated for 24-hour at 37 °C. The average of the inhibition zones was then calculated. To determine the MICs, the natural logarithm of each diluted test substance’s concentration was plotted against the average area of the related inhibition zone. Following that, a regression line was created and the intercept on the ‘ln concentration” axis was determined, and the antilogarithm was calculated to indicate the MIC value[34],[63].

SNB-19 = assay: NCI single-dose growth inhibition screen; type: cell-based; conditions: Homo sapiens; CNS Cancer SNB-19; single dose 10^−5 M
CCRF-CEM = assay: NCI single-dose growth inhibition screen; type: cell-based; conditions: Homo sapiens; Leukemia CCRF-CEM; single dose 10^−5 M
786-0 = assay: NCI single-dose growth inhibition screen; type: cell-based; conditions: Homo sapiens; Renal Cancer 786-0; single dose 10^−5 M
MCF7 = assay: NCI single-dose growth inhibition screen; type: cell-based, human; conditions: Homo sapiens, MCF7, Breast Cancer MCF7; single dose 10^−5 M
HOP-62 = assay: NCI single-dose growth inhibition screen; type: cell-based; conditions: Homo sapiens; Non-Small Cell Lung Cancer HOP-62; single dose 10^−5 M
SK-MEL-28 = assay: NCI single-dose growth inhibition screen; type: cell-based; conditions: Homo sapiens; Melanoma SK-MEL-28; single dose 10^−5 M
UACC-62 = assay: NCI single-dose growth inhibition screen; type: cell-based; conditions: Homo sapiens; Melanoma UACC-62; single dose 10^−5 M
MDA-MB-468 = assay: NCI single-dose growth inhibition screen; type: cell-based; conditions: Homo sapiens; Breast Cancer MDA-MB-468; single dose 10^−5 M
HL-60(TB) = assay: NCI single-dose growth inhibition screen; type: cell-based; conditions: Homo sapiens; Leukemia HL-60(TB); single dose 10^−5 M
NCI-H23 = assay: NCI single-dose growth inhibition screen; type: cell-based; conditions: Homo sapiens; Non-Small Cell Lung Cancer NCI-H23; single dose 10^−5 M
K-562 = assay: NCI single-dose growth inhibition screen; type: cell-based; conditions: Homo sapiens, K562; Leukemia K-562; single dose 10^−5 M
A498 = assay: NCI single-dose growth inhibition screen; type: cell-based, human; conditions: Homo sapiens, A498, Renal Cancer A498; single dose 10^−5 M
SK-MEL-2 = assay: NCI single-dose growth inhibition screen; type: cell-based; conditions: Homo sapiens; Melanoma SK-MEL-2; single dose 10^−5 M
OVCAR-4 = assay: NCI single-dose growth inhibition screen; type: cell-based; conditions: Homo sapiens; Ovarian Cancer OVCAR-4; single dose 10^−5 M
SNB-75 = assay: NCI single-dose growth inhibition screen; type: cell-based, human; conditions: single dose 10^−5 M; for inhibition at 10 µM: Homo sapiens, SNB-75, CNS Cancer SNB-75
[1] = tested on: K. pneumoniae ATCC 10,031; assay: Antibacterial screening, agar cup diffusion method; type: cell-based; conditions: read-out: Minimum inhibitory concentrations (MIC, µM) K. pneumoniae ATCC 10,031
Description: as §1

HCT-116 = assay: NCI single-dose growth inhibition screen; type: cell-based; conditions: Homo sapiens; Colon Cancer HCT-116; single dose 10^−5 M
SN12C = assay: NCI single-dose growth inhibition screen; type: cell-based; conditions: Homo sapiens; Renal Cancer SN12C; single dose 10^−5 M
HOP-92 = assay: NCI single-dose growth inhibition screen; type: cell-based; conditions: Homo sapiens; Non-Small Cell Lung Cancer HOP-92; single dose 10^−5 M
TK-10 = assay: NCI single-dose growth inhibition screen; type: cell-based; conditions: Homo sapiens; Renal Cancer TK-10; single dose 10^−5 M
topoisomerase IIβ = molecular target: T1, topoisomerase IIβ (Homo sapiens, UniProt Q02880); assay: Topoisomerase II inhibition, human DNA topoisomerase Elisa kit; type: biochemical; conditions: ± SEM; read-out: Topoisomerase II IC50 µM ± SEM
T1 construct: purchased
Description: Two folds of serial dilution was accomplished after standards and the tested compounds were dissolved in sample diluent. Horseradish peroxidase (HRP-avidin) and biotin-conjugated antibody were diluted 10 times each. Each well received 100 µL of each concentration of the standard or test chemicals, which were then added and incubated at 37 °C for 60 min. […] The microtiter plate was rinsed three times and given room to aspirate. After that, the plate was incubated at 37 °C for 60 min with 100 µL of HRP-avidin solution added to each well. After that, the plate was aspirated and cleaned 5 times. Each well received 90 µL of TMB substrate, and the plate was incubated for 30 min. at 37 °C in a light-protected environment. Finally, stop solution (50 µL) was loaded, and within 5 min, the absorbance at 450 nm was measured spectrophotometrically.
Topoisomerase enzyme assay
Topoisomerase I and II inhibitory activity […]
topoisomerase IIβ inhibitory activity utilizing the human DNA topoisomerase Elisa kit.
Standards and the tested compound were dissolved in sample diluent and 2 folds serial dilution was achieved. Biotin-conjugated antibody and avidin conjugated Horseradish Peroxidase (HRP-avidin) were diluted to 10 folds. 100 μL of each concentration of standard or test compound were added to each well. Incubate at 37 °C for 1 h. The liquid in each well was removed. 10 0 μL of Biotin-conjugated antibody solution was added to each well followed by incubation for 1 h at 37 °C. The microtiter plate was allowed to aspirate and washed 3 times. 100 μL of avidin conjugated Horseradish Peroxidase (HRP -avidin) solution was added to each well and the plate was incubated for 1 h at 37 °C. The plate was aspirated and washed 5 times. 90 μL of TMB substrate were added to each well and the plate was incubated for 30 min at 37 °C and protected from light. 50 μL stop so lution was added. The absorbance was measured spectrophotometrically within 5 min at 450 nm .

[2] = Klebsiella pneumoniae, ATCC10, Gram –ve strain

T1 sequence (Q02880 whole entry): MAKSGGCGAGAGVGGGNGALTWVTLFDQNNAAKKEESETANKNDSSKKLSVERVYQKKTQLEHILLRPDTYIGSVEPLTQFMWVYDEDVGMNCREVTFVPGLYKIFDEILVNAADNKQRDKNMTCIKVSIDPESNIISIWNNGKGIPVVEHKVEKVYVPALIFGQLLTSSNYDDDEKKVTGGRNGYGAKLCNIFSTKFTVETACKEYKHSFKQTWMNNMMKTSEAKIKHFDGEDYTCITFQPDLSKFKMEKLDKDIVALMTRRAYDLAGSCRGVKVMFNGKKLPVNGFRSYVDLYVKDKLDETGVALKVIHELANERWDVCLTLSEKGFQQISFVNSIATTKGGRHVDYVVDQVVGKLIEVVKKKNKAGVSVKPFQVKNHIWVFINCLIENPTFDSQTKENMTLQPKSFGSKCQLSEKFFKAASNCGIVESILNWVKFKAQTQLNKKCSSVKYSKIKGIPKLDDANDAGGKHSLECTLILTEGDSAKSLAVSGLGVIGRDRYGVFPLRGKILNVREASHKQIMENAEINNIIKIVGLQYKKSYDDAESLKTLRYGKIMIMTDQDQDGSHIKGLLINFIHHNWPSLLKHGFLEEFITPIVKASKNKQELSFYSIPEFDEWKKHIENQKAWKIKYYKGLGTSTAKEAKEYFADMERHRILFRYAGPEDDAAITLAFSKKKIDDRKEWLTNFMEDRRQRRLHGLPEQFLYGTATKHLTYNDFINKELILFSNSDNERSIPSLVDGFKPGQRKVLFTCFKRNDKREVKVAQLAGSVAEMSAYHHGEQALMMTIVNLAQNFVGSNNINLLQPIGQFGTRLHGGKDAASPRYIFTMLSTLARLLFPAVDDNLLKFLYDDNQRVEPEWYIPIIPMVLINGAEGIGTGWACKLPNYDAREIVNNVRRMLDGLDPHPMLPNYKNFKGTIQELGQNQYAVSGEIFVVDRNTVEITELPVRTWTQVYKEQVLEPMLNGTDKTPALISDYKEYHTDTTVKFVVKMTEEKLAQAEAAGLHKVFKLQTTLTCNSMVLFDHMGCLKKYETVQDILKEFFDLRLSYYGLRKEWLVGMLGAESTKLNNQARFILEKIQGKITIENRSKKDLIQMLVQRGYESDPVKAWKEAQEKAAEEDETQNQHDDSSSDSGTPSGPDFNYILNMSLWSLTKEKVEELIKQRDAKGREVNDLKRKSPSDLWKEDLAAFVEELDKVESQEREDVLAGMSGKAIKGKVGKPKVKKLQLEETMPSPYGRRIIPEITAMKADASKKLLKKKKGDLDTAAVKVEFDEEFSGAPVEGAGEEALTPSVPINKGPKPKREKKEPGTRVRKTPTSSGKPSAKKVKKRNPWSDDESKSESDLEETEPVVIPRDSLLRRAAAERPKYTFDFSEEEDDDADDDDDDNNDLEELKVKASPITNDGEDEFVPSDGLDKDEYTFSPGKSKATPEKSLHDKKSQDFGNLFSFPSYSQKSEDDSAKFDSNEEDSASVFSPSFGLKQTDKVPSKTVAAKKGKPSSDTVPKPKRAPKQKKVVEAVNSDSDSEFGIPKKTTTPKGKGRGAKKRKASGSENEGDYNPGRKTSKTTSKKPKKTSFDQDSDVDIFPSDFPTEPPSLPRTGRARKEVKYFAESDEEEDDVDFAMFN

Structure (SMILES) | MIC (S. aureus ATCC 6538) [µM] | inhibition at 10 µM (SNB-19) [%] | inhibition at 10 µM (CCRF-CEM) [%] | inhibition at 10 µM (786-0) [%] | inhibition at 10 µM (MCF7) [%] | inhibition at 10 µM (HOP-62) [%] | inhibition at 10 µM (SK-MEL-28) [%] | inhibition at 10 µM (UACC-62) [%] | inhibition at 10 µM (MDA-MB-468) [%] | inhibition at 10 µM (HL-60(TB)) [%] | inhibition at 10 µM (NCI-H23) [%] | inhibition at 10 µM (K-562) [%] | inhibition at 10 µM (A498) [%] | inhibition at 10 µM (SK-MEL-2) [%] | inhibition at 10 µM (OVCAR-4) [%] | inhibition at 10 µM (SNB-75) [%] | inhibition at 10 µM (HCT-116) [%] | inhibition at 10 µM (SN12C) [%] | inhibition at 10 µM (HOP-92) [%] | inhibition at 10 µM (TK-10) [%] | further results
O=C(O)c1cn(C2CC2)c2cc(N3CCN(C(=O)CCCN4C(=O)SC(=Cc5cccc([N+](=O)[O-])c5)C4=O)CC3)c(F)cc2c1=O [3d, 1-cyclopropyl-6-fluoro-7-[4-[4-[5-[(3-nitrophenyl)methylene]-2,4-dioxo-thiazolidin-3-yl]butanoyl]piperazin-1-yl]-4-oxoquinoline-3-carboxylic acid] | > 20 | 1 | < 0 | 8.5 | 1.9 | 5.2 | < 0 | 10.3 | 0.5 | < 0 | 7.9 | < 0 | 8.9 | 2.9 | 2.6 | 18.2 | < 0 | 3.7 | < 0 | < 0 | MIC ([1]; Gram –ve strain): 0.13 µM (≈ 0.0845 µg/mL); MIC [1, 2]: 0.13 to 0.8 µM (≈ 0.0845 to 0.52 µg/mL)
O=C(O)c1cn(C2CC2)c2cc(N3CCN(C(=O)CCCN4C(=O)S/C(=C\c5ccc(Cl)cc5)C4=O)CC3)c(F)cc2c1=O [3 h] | > 20 | 0 | < 0 | 11.3 | < 0 | 2.9 | < 0 | 6.2 | < 0 | < 0 | 5.3 | 0.7 | 7.7 | 7.3 | 5.1 | 15.5 | 1.8 | 0.4 | 9.7 | 1.1 | 
COc1ccc(/C=C2\SC(=O)N(CCCC(=O)N3CCN(c4cc5c(cc4F)c(=O)c(C(=O)O)cn5C4CC4)CC3)C2=O)cc1OC [3f] | > 20 | 0.9 | < 0 | 2.4 | 3.9 | < 0 | < 0 | 1.4 | < 0 | 1.9 | < 0 | 1.1 | 15.5 | 2.8 | < 0 | 4.9 | < 0 | 0.8 | 0.8 | 8.7 | MIC [1, 2]: > 20 µM
Cc1ccc(/C=C2\SC(=O)N(CCCC(=O)N3CCN(c4cc5c(cc4F)c(=O)c(C(=O)O)cn5C4CC4)CC3)C2=O)cc1 [3c] | > 20 | < 0 | 2.9 | 0.9 | < 0 | < 0 | < 0 | 4.2 | < 0 | 6.2 | 1.8 | < 0 | 5.3 | < 0 | < 0 |  | < 0 | < 0 | < 0 | < 0 | 
O=C(O)c1cn(C2CC2)c2cc(N3CCN(C(=O)CCCN4C(=O)S/C(=C\c5ccc([N+](=O)[O-])cc5)C4=O)CC3)c(F)cc2c1=O [3k] | > 20 | < 0 |  | 14.1 | < 0 | 19.7 | < 0 | 2 | < 0 | < 0 | 6.2 | < 0 |  | < 0 | 13.7 | 42.5 | < 0 | 8.7 | 0.2 | 33.5 | IC50 (topoisomerase IIβ): 18.7 ± 1.02 µM; Growth Inhibition (%) (SNB-75; CNS Cancer SNB-75): 42.5%
COc1cc(/C=C2\SC(=O)N(CCCC(=O)N3CCN(c4cc5c(cc4F)c(=O)c(C(=O)O)cn5C4CC4)CC3)C2=O)cc(OC)c1OC [3 g] | > 20 | < 0 | < 0 | < 0 | 3.6 | < 0 | < 0 | 3.7 | < 0 | < 0 | 2.6 | < 0 | 2.3 | < 0 | < 0 | 5.9 | < 0 | 0.6 | < 0 | < 0 | MIC ([1]; Gram –ve strain): 0.25 µM (≈ 0.174 µg/mL); MIC [1, 2]: 0.13 to 0.8 µM (≈ 0.0903 to 0.556 µg/mL)
COc1ccc(C=C2SC(=O)N(CCCC(=O)N3CCN(c4cc5c(cc4F)c(=O)c(C(=O)O)cn5C4CC4)CC3)C2=O)cc1 [3e, 1-cyclopropyl-6-fluoro-7-[4-[4-[5-[(4-methoxyphenyl)methylene]-2,4-dioxo-thiazolidin-3-yl]butanoyl]piperazin-1-yl]-4-oxoquinoline-3-carboxylic acid] | > 20 | 3.8 | < 0 | 18.7 | < 0 | < 0 | < 0 | 7 | < 0 | < 0 | 2.6 | < 0 | 32 | 6.5 | < 0 | 12.6 | 0 | < 0 | 8.3 | 11.3 | MIC ([1]; Gram –ve strain): 0.19 µM (≈ 0.121 µg/mL); MIC [1, 2]: 0.13 to 0.8 µM (≈ 0.0825 to 0.508 µg/mL)
